Laboratory results published in patent US20070148723A1, “METHOD AND APPARATUS FOR DETECTING PRESENCE OF TOXIC MATERIAL WITHIN SAMPLE” (SAMSUNG ELECTRONICS CO., LTD., priority 2005, published 2007).

Columns and labels:
[1] = system: electron transfer system of sub-mitochondrial particles; type: biochemical; details: for cathode peak current at 1.019 V relative to a sample of 0 wt %: 2.5 wt %, FIG. 4 / FIG. 5
Excerpt: FIGS. 1A is a diagram of an exemplary embodiment of a current measuring device; and FIG. 1B is a schematic diagram of an exemplary embodiment of a current measuring apparatus. Referring to FIG. 1A, a reaction vessel 10 includes an Ag/AgCl standard electrode 20 (RE in FIG. 1B), a platinum working electrode 30 (WE in FIG. 1B), and a platinum counter electrode 40 (CE in FIG. 1B). The standard electrode 20, the working electrode 30, and the counter electrode 40 are connected to a voltmeter 50 (e.g., a Perkin-Elmer VMP multichannel potentiostat; V in FIG. 1B). An X/Y plotter 60 is connected to the voltmeter 50. 0.5× PBS including 0.5 mg/ml of SMP (submitochondrial particle) (Havard Bioscience), 6 mM of NADH, and 50 mM of KCl was allowed to react at ambient temperature for 1 hour. […] The cyclic voltammogram was measured with a scan speed of 50 mV/sec CV at a sweep range of 0.85 to 1.35 V. […] FIG. 3 is a graph showing the cyclic voltammogram of 2.5 mM Ru(bpy)3^2+ in phosphate-buffered saline (PBS). Then, ethanol samples having final concentrations (on a weight basis) of 0 wt %, 2.5 wt %, 5 wt %, and 10 wt %, or a sample having 2.5 wt % of sorbitol was added to 0.5× PBS including 0.5 mg/ml of SMP, (submitochondrial particle), 6 mM of NADH, and 50 mM of KCl to prepare 7 ml of a final reaction solution and was allowed to react for 1 hour at ambient temperature. Next, absorbance of the final reaction solution was measured at 340 nanometers (nm) using a spectrophotometer and the concentration of NADH was measured using an optical method. […] The cyclic voltammogram was measured with a scan speed of 50 mV/sec CV at a sweep range of 0.85 to 1.35V.

[2] = system: electron transfer system of sub-mitochondrial particles; test: Optical method: NADH concentration by absorbance at 340 nm of SMP/NADH reaction solution; type: biochemical; details: 2.5 wt %
Description: Then, ethanol samples having final concentrations (on a weight basis) of 0 wt %, 2.5 wt %, 5 wt %, and 10 wt %, or a sample having 2.5 wt % of sorbitol was added to 0.5× PBS including 0.5 mg/ml of SMP, (submitochondrial particle), 6 mM of NADH, and 50 mM of KCl to prepare 7 ml of a final reaction solution and was allowed to react for 1 hour at ambient temperature. Next, absorbance of the final reaction solution was measured at 340 nanometers (nm) using a spectrophotometer and the concentration of NADH was measured using an optical method. […] The cyclic voltammogram was measured with a scan speed of 50 mV/sec CV at a sweep range of 0.85 to 1.35V.

[3] = 0.5 mg/ml SMP, 6 mM NADH, 1 hour at ambient temperature

CCO [ethanol]
effect on electron transfer reaction of sub-mitochondrial particles (toxicity) [1]: obstructs the electron transfer reaction of sub-mitochondrial particles
cathode peak current at 1.019 V in a cyclic voltammogram as concentration increases ([1]; 0, 2.5, 5 and 10 wt %, 0.5 mg/ml SMP, 6 mM NADH, 1 hour at ambient temperature, FIG. 4): moves towards in less negative (i.e., more positive, cathodic) direction
cathode peak current at 1.019 V relative to a sample of 0 wt % [1, 3]: moves toward a less negative value

OC[C@@H](O)[C@@H](O)[C@H](O)[C@@H](O)CO [sorbitol]
effect on electron transfer reaction of sub-mitochondrial particles (toxicity) [1]: does not include toxic material
cathode peak current at 1.019 V relative to a sample of 0 wt % [1, 3]: moves towards a more negative value
toxicity by optical measurement ([2]; conclusion from absorbance at 340 nm): no toxicity
absorbance at 340 nm compared to a sample of 0 wt % ([2]; spectrophotometer, data not illustrated): no changes
